Tests used:
Assay type in all cases: cell-based, human
normal pancreas cells = experiment: Proliferation of normal pancreas cells (BRDU-uptake, MTS); conditions: 72 h
Experimental: FIG. 20 depicts a degree of increased proliferation of normal pancreatic cells in accordance with an embodiment of the present invention. Freshly resected normal pancreas tissues were mechanically and enzymatically dispersed, and cells were pre-incubated in 2 mM glucose prior to treatment with 5.5 mM glucose or fructose for 72 h. BRDU (10 μM) was added to the medium at 60 h, and BRDU-uptake quantified at 72 h.
In the course of obtaining fresh surgically resected pancreatic cancer tissue, the inventors also obtained some peripherally adjacent “normal” pancreatic tissue and normal tissue from a patient undergoing pancreas resection for complications of chronic pancreatitis. The inventors studied 5 of these “normal” pancreas tissues, and although caveats may exist given that they were derived from pancreases which were involved with another disease entity, the inventors believe they offer a useful comparator for the tumors. […] As before, BRDU (10 µM) was added, after which BRDU-uptake was quantified. In parallel experiments, when sufficient normal pancreatic issue was available, proliferative rates following 72 h incubation in the sugars were also measured using the MTS proliferation assay. […]

[1] = tested on: fructokinase-1 (FK-1) mRNA; experiment: Fructokinase-1 mRNA by RT-PCR in MCF-7 cells; conditions: MCF-7, 5 mM sugar, compared with 2 mM glucose
Experimental: FIG. 7 depicts fructokinase-1 expression in accordance with an embodiment of the present invention. Breast cancer cells (MCF-7) express Fructokinase-1 (FK-1). RT-PCR was used to measure fructokinase-1 (FK-1) mRNA levels in MCF-7 cells following growth in 2 mM glucose, 5.5 mM glucose, or 5.5 mM fructose for 24 h, and in two human breast cancers (BT 1 & 2), and matched adjacent normal breast tissue (NB 1 & 2) from the same individual. […] Human liver, and exclusion of template served as positive and negative controls.
The inventors used RT-PCR analysis and specific primer pairs (SEQ ID NO: 1 (3′[…]), SEQ ID NO: 2 (5′[…])) to examine fructokinase-1 (FK-1) mRNA levels in glucose- or fructose-treated breast cancer cells. […] Also examined were FK-1 mRNA levels in two surgically resected human breast cancers, and paired adjacent normal breast tissue from the same individual. FK-1 mRNA was detectable in both normal and tumor tissue.

[2] = tested on: PANC-1 pancreatic cancer cells; experiment: BRDU uptake in PANC-1 cells; conditions: PANC-1, 5.5 mM fructose, 72 h
Experimental: FIG. 16 depicts BRDU uptake following treatment with glucose or fructose in accordance with an embodiment of the present invention. PANC-1 cells were pre-incubated in 2 mM glucose prior to treatment with 5.5 mM glucose or fructose for 72 h. BRDU (0.01 mg/ml) was added to the medium at 48 h, and BRDU-uptake quantified at 72 h.
As a further measure of PANC-1 proliferative rates, the inventors compared bromodeoxyuridine (BRDU) uptake following PANC-1 cell treatment as before with 2 mM, and 5.5 mM glucose, or 5.5 mM fructose for 72 h. In the final 12 h, 10 μM BRDU was added to the glucose-, and fructose-treated cells, after which BRDU-positive cells were counted. […] A further question the inventors sought to address was would the fructose-induced pancreatic cancer proliferative rates be maintained if the PANC-1 cells were also exposed to, and able to utilize their customary culture glucose concentrations. Therefore, the inventors cultured PANC-1 cells for 72 h in a range of glucose concentrations (0-15 mM) admixed with a range of fructose concentrations (0-15 mM).

[3] = tested on: ER negative MDA-MB231 breast cancer cells; experiment: Breast cancer cell proliferation (MTT assay), MDA-MB231
Experimental: Estrogen receptor (ER) positive MCF-7, and ER negative MDA-MB231 cells were plated in 5 mM fructose or glucose for times between 8-72 h, and proliferative rates measured using MTT assay. *, p<0.05; **, p<0.01.
FIG. 5 depicts fructose-mediated increased breast cancer proliferation in accordance with an embodiment of the present invention. ER positive MCF-7, and ER negative MDA-MB231 cells were plated in a range of fructose or glucose concentrations (5-25 mM) for 72 h, after which proliferative rates were measured using an MTT assay. *, p<0.05 for concentrations between 5-25 mM fructose versus glucose.
Standard media for breast cancer cell culture contain either 5-7 mM (low) and 12-25 mM (high) glucose concentrations. Estrogen receptor (ER) positive MCF-7, and ER negative MDA-MB231 cells were cultured overnight in 2 mM glucose standard DMEM medium containing 10% fetal bovine serum prior to incubation for periods between 8, and 72 hours in standard DMEM medium containing 10% fetal bovine serum, and 5 mM glucose or 5 mM fructose.
Proliferative rates were then measured in replicate (minimum of 6) aliquot wells of the breast cancer cells grown in glucose, or fructose containing medium. […] In separate experiments, proliferative rates of the MCF-7, and MDA-MB231 breast cancer cells were compared following culture in a range of fructose, and glucose concentrations (2-25 mM) for 72 hours.

O=C(CO)[C@@H](O)[C@H](O)[C@H](O)CO [fructose]
proliferative rates, 5.5 mM glucose vs 5.5 mM fructose (normal pancreas cells): did not differ significantly
FK-1 mRNA levels (RT-PCR) [1]: highest FK-1 levels
BRDU-uptake higher than with 5.5 mM glucose [2]: ~75%
proliferative rates in fructose compared to glucose ([3]; MDA-MB231, 5 mM fructose vs 5 mM glucose, 8-72 h): higher proliferative rates
proliferative rates in 5 mM fructose compared to 25 mM glucose ([3]; MDA-MB231, 72 hours, 5 mM fructose vs 5-fold higher glucose (25 mM)): higher proliferative rates

Reference: patent publication US20090232735A1, “USE OF FRUCTOSE-BASED THERAPIES FOR THE TREATMENT OF CANCER” (CEDARS-SINAI MEDICAL CENTER, priority 2005, published 2009)
